Test results: patent US20250179055A1, “Substituted 2-(pyrrolidine-3-yl)acetic acid derivative, preparation method and use thereof” (INNOVSTONE THERAPEUTICS LIMITED, priority 2023, published 2025)
pIC50: −log10 of the molar value.

Legend:
serum Lp(a) = test: Humanized mouse Lp(a) inhibition test; format: in vivo, humanized Lp(a) transgenic mouse; settings: blood 8 h after last dose, humanized Lp(a) mice
Method: The in vivo pharmacodynamics of the compounds in reducing Lp(a) was evaluated in a humanized Lp(a) transgenic mouse model. Lp(a) mice were obtained by crossing mice expressing humanized apoB-100 with mice expressing humanized apo(a) containing 16 Kringle repeats. Female mice aged 8-9 weeks were selected for the test. Housing conditions: standard light cycle (12 h light/12 h dark), temperature 20-25° C., humidity 40-70%, free access to water and normal diet. is One day before the test, mice were divided into vehicle control group and test article group (n=5/group) according to body weight and baseline plasma Lp(a) concentration. Mice were orally administered with vehicle (normal saline, 10 mL/kg) or test compound (prepared with normal saline to 3 or 0.5 mg/mL, each mouse received 10 mL/kg), once daily (9:00 am) for 3 consecutive days, and blood was collected to determine the change of serum Lp(a). Eight hours after the last dose, 10 μL of blood was collected from the tail vein and transferred to a 1.5 mL centrifuge tube containing 90 μL of normal saline, mixed well, and left to stand on ice for 30 min. The above samples were centrifuged at 4° C., 3000 rpm for 10 min, and the supernatant was collected and placed on ice. The Lp(a) concentration in the supernatant was measured by double-antibody sandwich ELISA using an anti-apo(a) capture antibody and an HRP-conjugated anti-ApoB detection antibody, with TMB for color development. The reaction was stopped with 1 N sulfuric acid, and the OD value was read at 450 nm on a Tecan microplate reader. Inhibition rate was calculated for each dosing group. Inhibition rate (%)=(vehicle control group Lp(a) concentration or self pre-dose Lp(a) concentration post-dose Lp(a) concentration)/vehicle control group Lp(a) concentration or self pre-dose Lp(a) concentration*100.

[1] = target: Lp(a) assembly in HepG2 cells overexpressing ApoA protein (Homo sapiens (Human), UniProt P08519); test: ELISA assay on screening Lp(a) assembly inhibition; format: cell-based; settings: HepG2 cells overexpressing ApoA protein, 24 h, ELISA of supernatant
Sequence of Lp(a) assembly in HepG2 cells overexpressing ApoA protein (P08519 20-2040): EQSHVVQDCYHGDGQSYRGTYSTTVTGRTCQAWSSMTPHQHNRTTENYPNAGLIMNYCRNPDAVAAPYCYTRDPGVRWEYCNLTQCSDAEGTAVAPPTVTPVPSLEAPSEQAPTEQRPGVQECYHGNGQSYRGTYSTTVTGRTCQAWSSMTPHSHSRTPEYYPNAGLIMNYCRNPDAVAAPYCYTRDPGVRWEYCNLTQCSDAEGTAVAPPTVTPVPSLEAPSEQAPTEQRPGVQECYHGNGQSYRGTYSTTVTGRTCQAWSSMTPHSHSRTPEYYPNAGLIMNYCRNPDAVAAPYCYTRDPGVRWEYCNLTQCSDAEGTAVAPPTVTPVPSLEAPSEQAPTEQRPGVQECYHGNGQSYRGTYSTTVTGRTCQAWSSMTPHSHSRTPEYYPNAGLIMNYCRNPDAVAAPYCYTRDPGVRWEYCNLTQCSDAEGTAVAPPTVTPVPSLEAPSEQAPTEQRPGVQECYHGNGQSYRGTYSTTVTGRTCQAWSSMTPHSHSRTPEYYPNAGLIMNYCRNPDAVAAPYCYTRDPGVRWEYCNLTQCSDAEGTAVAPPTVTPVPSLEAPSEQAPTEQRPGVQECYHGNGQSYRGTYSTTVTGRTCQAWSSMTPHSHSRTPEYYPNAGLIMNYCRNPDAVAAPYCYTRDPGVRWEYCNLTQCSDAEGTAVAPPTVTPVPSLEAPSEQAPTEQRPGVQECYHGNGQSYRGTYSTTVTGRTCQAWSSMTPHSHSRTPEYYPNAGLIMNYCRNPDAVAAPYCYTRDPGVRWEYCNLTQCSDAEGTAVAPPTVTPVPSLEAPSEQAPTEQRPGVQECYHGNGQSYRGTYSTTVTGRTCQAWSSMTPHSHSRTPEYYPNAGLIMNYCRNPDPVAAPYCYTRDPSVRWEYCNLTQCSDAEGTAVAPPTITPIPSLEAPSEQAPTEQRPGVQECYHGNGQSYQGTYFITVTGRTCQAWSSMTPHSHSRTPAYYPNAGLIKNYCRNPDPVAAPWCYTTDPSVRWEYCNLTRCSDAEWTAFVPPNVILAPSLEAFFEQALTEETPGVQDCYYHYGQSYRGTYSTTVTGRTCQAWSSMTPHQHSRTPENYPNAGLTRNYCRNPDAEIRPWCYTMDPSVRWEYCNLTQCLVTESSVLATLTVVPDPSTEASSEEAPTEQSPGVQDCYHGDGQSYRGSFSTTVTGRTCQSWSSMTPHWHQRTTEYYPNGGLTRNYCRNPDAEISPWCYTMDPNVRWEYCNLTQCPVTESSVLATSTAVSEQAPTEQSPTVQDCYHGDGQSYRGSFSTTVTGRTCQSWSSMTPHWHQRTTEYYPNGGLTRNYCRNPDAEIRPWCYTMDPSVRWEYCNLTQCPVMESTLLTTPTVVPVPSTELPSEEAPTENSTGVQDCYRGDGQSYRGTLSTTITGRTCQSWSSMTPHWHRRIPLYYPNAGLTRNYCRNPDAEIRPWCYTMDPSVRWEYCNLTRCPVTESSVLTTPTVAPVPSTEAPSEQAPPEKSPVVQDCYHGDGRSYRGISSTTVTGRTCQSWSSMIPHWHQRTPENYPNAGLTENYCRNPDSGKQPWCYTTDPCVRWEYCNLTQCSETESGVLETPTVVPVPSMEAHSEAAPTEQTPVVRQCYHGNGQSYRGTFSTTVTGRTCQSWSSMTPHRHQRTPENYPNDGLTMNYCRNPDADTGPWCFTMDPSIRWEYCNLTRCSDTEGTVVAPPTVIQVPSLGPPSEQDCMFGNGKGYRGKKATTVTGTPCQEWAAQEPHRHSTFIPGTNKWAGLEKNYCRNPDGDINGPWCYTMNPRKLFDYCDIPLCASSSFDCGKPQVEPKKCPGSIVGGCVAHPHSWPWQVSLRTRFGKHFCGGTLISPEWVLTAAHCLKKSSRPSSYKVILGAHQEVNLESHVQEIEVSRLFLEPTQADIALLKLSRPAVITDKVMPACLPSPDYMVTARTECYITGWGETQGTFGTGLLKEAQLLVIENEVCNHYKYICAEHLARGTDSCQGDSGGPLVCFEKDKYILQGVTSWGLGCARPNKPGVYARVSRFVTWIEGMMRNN
In short: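 HepG2 cells overexpressing ApoA treated with diluted compounds for 24 h at 37 °C, 5% CO2; EACA (10 μL of 1.5 M) added before harvesting supernatant. Secreted Lp(a) quantified by sandwich ELISA; IC50 from four-parameter Hill fit of % inhibition versus concentration.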

[2] = 5 mg/kg oral once daily for 3 days

SMILES	pIC50 [1]	Lp(a) Inhibition Rate (serum Lp(a); 30 mg/kg oral once daily for 3 days) [%]	Lp(a) Inhibition Rate (serum Lp(a); [2]) [%]
O=C(O)[C@@H](Cc1cccc(CN(Cc2cccc(C[C@H](C(=O)O)[C@H]3CCNC3)c2)C(=O)COc2cccc(C[C@H](C(=O)O)[C@H]3CCNC3)c2)c1)[C@H]1CCNC1 [Compound 95, (2S,2′S)-3,3′-((((2-(3-((S)-2-carboxy-2-((R)-pyrrolidin-3-yl)ethyl)phenoxy)acetyl)azanediyl)bis(methylene))bis(3,1-phenylene))bis(2-((R)-pyrrolidin-3-yl)propanoic acid)]	9.17	95	
O=C(O)[C@@H](Cc1cccc(CCN(CCOc2cccc(C[C@H](C(=O)O)[C@H]3CCNC3)c2)C(=O)Cc2cccc(C[C@H](C(=O)O)[C@H]3CCNC3)c2)c1)[C@H]1CCNC1 [Compound 100, (S)-3-(3-(2-((3-((S)-2-carboxy-2-((R)-pyrrolidin-3-yl)ethyl)phenethyl)(2-(3-((S)-2-carboxy-2-((R)-pyrrolidin-3-yl)ethyl)phenoxy)ethyl)amino)-2-oxoethyl)phenyl)-2-((R)-pyrrolidin-3-yl)propanoic acid]	8.95		86
O=C(O)[C@@H](Cc1cccc(CC(=O)N(CCOc2cccc(C[C@H](C(=O)O)[C@H]3CCNC3)c2)CCOc2cccc(C[C@H](C(=O)O)[C@H]3CCNC3)c2)c1)[C@H]1CCNC1 [Compound 111, (2S,2′S)-3,3′-(((((2-(3-((S)-2-carboxy-2-((R)-pyrrolidin-3-yl)ethyl)phenyl)acetyl)azanediyl)bis(ethane-2,1-diyl))bis(oxy))bis(3,1-phenylene))bis(2-((R)-pyrrolidin-3-yl)propanoic acid)]	8.99		92
O=C(O)[C@@H](Cc1cccc(OCCN(CCOc2cccc(C[C@H](C(=O)O)[C@H]3CCNC3)c2)C(=O)COc2cccc(C[C@H](C(=O)O)[C@H]3CCNC3)c2)c1)[C@H]1CCNC1 [Compound 113, (2S,2′S)-3,3′-(((((2-(3-((S)-2-carboxy-2-((R)-pyrrolidin-3-yl)ethyl)phenoxy)acetyl)azanediyl)bis(ethane-2,1-diyl))bis(oxy))bis(3,1-phenylene))bis(2-((R)-pyrrolidin-3-yl)propanoic acid)]	8.93		79
O=C(O)[C@@H](Cc1cc(F)cc(CC(=O)N(CCOc2cc(F)cc(C[C@H](C(=O)O)[C@H]3CCNC3)c2)Cc2cc(F)cc(C[C@H](C(=O)O)[C@H]3CCNC3)c2)c1)[C@H]1CCNC1 [Compound 152, (S)-3-(3-(2-((3-((S)-2-carboxy-2-((R)-pyrrolidin-3-yl)ethyl)-5-fluorobenzyl)(2-(3-((S)-2-carboxy-2-((R)-pyrrolidin-3-yl)ethyl)-5-fluorophenoxy)ethyl)amino)-2-oxoethyl)-5-fluorophenyl)-2-((R)-pyrrolidin-3-yl)propanoic acid]	8.90		90
O=C(O)[C@@H](Cc1cccc(OCCN(Cc2cc(C[C@H](C(=O)O)[C@H]3CCNC3)cs2)C(=O)Cc2cc(C[C@H](C(=O)O)[C@H]3CCNC3)cs2)c1)[C@H]1CCNC1 [Compound 180, (S)-3-(5-(2-((2-(3-((S)-2-carboxy-2-((R)-pyrrolidin-3-yl)ethyl)phenoxy)ethyl)((4-((S)-2-carboxy-2-((R)-pyrrolidin-3-yl)ethyl)thiophen-2-yl)methyl)amino)-2-oxoethyl)thiophen-3-yl)-2-((R)-pyrrolidin-3-yl)propanoic acid]			80
[2H]C([2H])(c1cccc(CC(=O)N(CCOc2cccc(C([2H])([2H])[C@H](C(=O)O)[C@H]3CCNC3)c2)Cc2cccc(C([2H])([2H])[C@H](C(=O)O)[C@H]3CCNC3)c2)c1)[C@H](C(=O)O)[C@H]1CCNC1 [Compound 190, (S)-3-(3-(2-((3-((S)-2-carboxy-2-((R)-pyrrolidin-3-yl)ethyl-1,1-d2)benzyl)(2-(3-((S)-2-carboxy-2-((R)-pyrrolidin-3-yl)ethyl-1,1-d2)phenoxy)ethyl)amino)-2-oxoethyl)phenyl)-2-((R)-pyrrolidin-3-yl)propanoic-3,3-d2 acid]			83
[2H]C([2H])(c1cccc(C[C@H](C(=O)O)[C@H]2CCNC2)c1)N(CCOc1cccc(C[C@H](C(=O)O)[C@H]2CCNC2)c1)C(=O)Cc1cccc(C[C@H](C(=O)O)[C@H]2CCNC2)c1 [Compound 193, (S)-3-(3-(2-((2-(3-((S)-2-carboxy-2-((R)-pyrrolidin-3-yl)ethyl)phenoxy)ethyl)((3-((S)-2-carboxy-2-((R)-pyrrolidin-3-yl)ethyl)phenyl)methyl-d2)amino)-2-oxoethyl)phenyl)-2-((R)-pyrrolidin-3-yl)propanoic acid]			88

Second part, led by results:

pIC50 [1]	SMILES	Lp(a) Inhibition Rate (serum Lp(a); 30 mg/kg oral once daily for 3 days) [%]	Lp(a) Inhibition Rate (serum Lp(a); [2]) [%]
8.70	O=C(O)[C@@H](Cc1cccc(CN(CCOc2cccc(C[C@H](C(=O)O)[C@H]3CCNC3)c2)C(=O)Sc2cccc(C[C@H](C(=O)O)[C@H]3CCNC3)c2)c1)[C@H]1CCNC1 [Compound 138, (S)-3-(3-(2-((3-((S)-2-carboxy-2-((R)-pyrrolidin-3-yl)ethyl)benzyl)(((3-((S)-2-carboxy-2-((R)-pyrrolidin-3-yl)ethyl)phenyl)thio)carbonyl)amino)ethoxy)phenyl)-2-((R)-pyrrolidin-3-yl)propanoic acid]		88
8.72	O=C(O)[C@@H](Cc1cccc(CCN(CCOCc2cccc(C[C@H](C(=O)O)[C@H]3CCNC3)c2)C(=O)Cc2cccc(C[C@H](C(=O)O)[C@H]3CCNC3)c2)c1)[C@H]1CCNC1 [Compound 161, (S)-3-(3-(2-((2-((3-((S)-2-carboxy-2-((R)-pyrrolidin-3-yl)ethyl)benzyl)oxy)ethyl)(3-((S)-2-carboxy-2-((R)-pyrrolidin-3-yl)ethyl)phenethyl)amino)-2-oxoethyl)phenyl)-2-((R)-pyrrolidin-3-yl)propanoic acid]		83
8.74	COc1cc(CC(=O)N(CCOc2cc(C[C@H](C(=O)O)[C@H]3CCNC3)cc(OC)c2)Cc2cc(C[C@H](C(=O)O)[C@H]3CCNC3)cc(OC)c2)cc(C[C@H](C(=O)O)[C@H]2CCNC2)c1 [Compound 176, (S)-3-(3-(2-((3-((S)-2-carboxy-2-((R)-pyrrolidin-3-yl)ethyl)-5-methoxybenzyl)(2-(3-((S)-2-carboxy-2-((R)-pyrrolidin-3-yl)ethyl)-5-methoxyphenoxy)ethyl)amino)-2-oxoethyl)-5-methoxyphenyl)-2-((R)-pyrrolidin-3-yl)propanoic acid]		78
8.90	O=C(O)[C@@H](Cc1cccc(CC(=O)N(CCOc2cccc(C[C@H](C(=O)O)[C@H]3CCNC3)c2)Cc2cc(C[C@H](C(=O)O)[C@H]3CCNC3)cs2)c1)[C@H]1CCNC1 [Compound 177, (S)-3-(3-(2-((2-(3-((S)-2-carboxy-2-((R)-pyrrolidin-3-yl)ethyl)phenoxy)ethyl)((4-((S)-2-carboxy-2-((R)-pyrrolidin-3-yl)ethyl)thiophen-2-yl)methyl)amino)-2-oxoethyl)phenyl)-2-((R)-pyrrolidin-3-yl)propanoic acid]		90
